Measurements from US5385918A, “Aminomethylene-peptides as immunosuppressants” (Miles Inc., priority 1993, dated 1995).
Read-outs that look alike come from different tables or passages of the source.

What was measured:
NF-AT (FGL-5 cells) = assay: NF-AT Inhibition Assay Directed β-Galactosidase Expression; type: cell-based
Protocol: Inhibition of NF-AT activity is measured using FGL-5 cells. FGL-5 is a cloned line of stably transfected Jurkat T-cells that contain a construct in which three tandem copies of the NF-AT DNA binding site direct transcription of the lacZ gene, encoding β-galactosidase (Fiering et al., 1990, Genes & Development 4:1823). When these cells are stimulated with phorbol esters which activate protein kinase C and calcium ionophore to raise the intracellular calcium concentration, transcriptionally active NF-AT is produced. In T-cells, this normally leads to the expression of IL-2, T-cell growth factor. However, in FGL-5 cells NF-AT activation leads to the production of β-galactosidase which can be detected using an appropriate substrate.
This assay was performed essentially as described (Bierer et al., 1990, Proc. Natl. Acad. Sci. 87:923 1). FGL-5 cells were maintained in medium consisting of RPMI-1640 with 10% FBS, 2 mM L-glutamine, 1% Penicillin-Streptomycin and 15 mM HEPES buffer. The assays were done with exponentially growing cells whose density was not greater than 0.5 million cells/ml. The cells were resuspended to 3 million cells/ml in medium and 0.1 ml was added to wells of a 96-well plate.
The compounds of the present invention were dissolved in either ethanol or dimethylsulfoxide at 10 mM and 0.05 ml/well of various dilutions in medium were added to cells in duplicate wells. Treatment controls consisted of duplicate wells to which 0.05 ml/well of either medium, ethanol or dimethylsulfoxide was added. The ethanol and dimethyl sulfoxide were at the same concentration as was used for the compounds. Cells were incubated with compounds at room temperature for 10-15 minutes. Phorbol dibutyrate (Sigma) and Ionomycin (Calbiochem) were dissolved at 50 μg/ml and 2 mM, respectively and stored at -70° C.
FGL-5 cells were stimulated by diluting these reagents with medium to 200 ng/ml and 8 μM, respectively and adding of 0.05 ml/well. For unstimulated cell controls, 0.05 ml/well of medium was added to duplicate wells. The plates were incubated overnight (16-18 hours) at 37° C. in a humidified atmosphere of 5% CO2 and air.
β-galactosidase activity was measured as the fluorescence generated by the cleavage of 4-methyl umbelliferyl-β-D-galactoside (Sigma) at the β-galactoside bond. After overnight incubation, the cells were centrifuged at 500×g for 3 minutes in the 96-well plates and washed 3 times with PBS. The cells were then resuspended in 0.18 ml/well of reaction medium containing 100 mM sodium phosphate buffer, pH 7.0, 10 mM potassium chloride, 1 mM magnesium sulfate, 0.1% Triton X-100 (Pierce, Rockford, Ill.), and 0.5 mM 4-methylumbelliferyl-β-D-galactoside.
The fluorescence at 460 nm using 3 55 nm excitation was measured at intervals over 1-2 hours (during which fluorescence increased linearly with time) with a LS50 Luminescence Spectrometer (Perkin Elmer).
The percent inhibition by each concentration of the compounds was calculated as: [formula]
The values of the concentration of compounds required for 50% inhibition (IC50) were determined by linear regression analysis of the percent inhibition at various compound concentrations.

Lewis rats = assay: Adjuvant Arthritis Model in the Rat; type: in vivo; conditions: for % Inhibition: inhibition of swelling in uninjected limb vs vehicle control, 10 mg/kg/dose i.p.; for ΔAnkle Diameter: uninjected hind paw, day 0 to day 16, 10 mg/kg/dose i.p. on days -1, 0, 2, 5, 7, 9, 12 and 14
Protocol: Complete Freund's adjuvant is made by supplementing extra heavy mineral oil with 10 mg/ml heat killed Mycobacterium butyricum (Difco Laboratories, Detroit, Mich.). Lewis rats (Charles Rivers, Willmington, Mass.) are given a 0.1 ml injection of adjuvant (1 mg/animal mycobacterium) subcutaneously into the right hind footpad. In the injected foot, an acute inflammatory reaction occurs which is characterized by erythema, edema and a predominantly neutrophilic cell infiltrate. This is followed by edema in the uninjected contralateral foot by days 10-12. This secondary response is accompanied by a predominantly mononuclear cell infiltrate, indicating the presence of cell-mediated immunity.
The immune response is quantitated by measuring the change in ankle diameter of the uninjected hind paw from day 0 to day 16 post sensitization. This is accomplished using a hand-held dial micrometer. Animals are administered test drugs, suspended in a vehicle consisting of 5% polyethylene glycol and 0.5% Tween-80 (Sigma Chemical Co., St. Louis, Mo.) in phosphate buffered saline (GIBCO, Grand Island, N.Y.), i.p. on days -1, 0, 2, 5, 7, 9, 12 and 14. Several compounds when administered at 10 mg/kg/dose inhibited the swelling in the uninjected limb compared with the control groups that were sensitized with Complete Freund's Adjuvant but received only the vehicle i.p. (Table 4).

[1] = inhibition of β-galactosidase activity in FGL-5 cells stimulated with phorbol dibutyrate and ionomycin, read-out: IC50
[2] = stimulated FGL-5 cells, read-out: IC50 for NF-AT directed β-galactosidase expression

IC50 (NF-AT (FGL-5 cells); [1]) | IC50 (NF-AT (FGL-5 cells); [2]) | SMILES | % Inhibition (Lewis rats) | ΔAnkle Diameter (Lewis rats)
13 µM | – | CC[C@H](C)[C@H](NC(=O)[C@@H]1CCCN1C[C@H](CC(C)C)NC(=O)OC(C)(C)C)C(=O)NCc1ccccc1 [Example 2, 1-[1-[2-(S)-[[(1,1-Dimethylethoxy)carbonyl]amino]-4-methylpentyl]-L-proline]-L-isoleucine Benzylamide] | – | –
1 µM | – | CC[C@H](C)[C@H](NC(=O)[C@@H]1CCCCN1C[C@@H](NC(=O)OC(C)(C)C)[C@@H](C)CC)C(=O)NCc1ccccc1 [Example 3, 1-[1-[2-(S)-[[(1,1-Dimethylethoxy)carbonyl]amino]-3-(S)-methylpentyl]-L-homoproline]-L-isoleucine Benzylamide] | 30% | 2.6 ± 0.4 mm
> 15 µM | – | CCC(C)[C@@H](CN1CCC[C@H]1C(=O)N[C@H](C(=O)NCc1ccccc1)[C@@H](C)CC)NC(=O)[C@H](CC1CCCCC1)NC(=O)OC(C)(C)C (stereo partly drawn) [Example 7, 1-[1-[2-(S)-[[2-(S)-[[(1,1-Dimethylethoxy)carbonyl]amino]-1-oxo-3-cyclohexylpropyl]amino]-3-methylpentyl]-L-proline]-L-isoleucine Benzylamide] | – | –
> 15 µM | – | CCC(C)[C@@H](CN1CCC[C@H]1C(=O)N[C@H](C(=O)NCc1ccccc1)[C@@H](C)CC)NC(=O)[C@@H](N)CC1CCCCC1 (some centres unmarked) [Example 8] | – | –
– | ≤ 10 µM | CC[C@H](C)[C@H](NC(=O)[C@@H]1CCCN1C[C@H](CC(C)C)NC(=O)[C@H](CC(N)=O)NC(=O)[C@H](Cc1ccccc1)NC(=O)OC(C)(C)C)C(=O)OCc1ccccc1 [Example 14, 1-[1-[2-(S)-[[1-[1-[(1,1-Dimethylethoxy)carbonyl]-L-phenylalanyl]-L-asparaginyl]amino]-4-methylpentyl]-L-proline]-L-isoleucine Phenylmethyl Ester] | – | –
19 µM | – | CC[C@H](C)[C@H](NC(=O)[C@@H]1CCCN1C[C@H](CC1CCCCC1)NC(=O)OC(C)(C)C)C(=O)NCc1ccccc1 [Example 16, 1-[1-[2-(S)-[[(1,1-dimethylethoxy)carbonyl]amino]-3-cyclohexylpropyl]-L-proline]-L-isoleucine Benzylamide] | – | –
29 µM | ≤ 10 µM | CC[C@H](C)[C@H](NC(=O)[C@@H]1CCCN1C[C@@H](NC(=O)OC(C)(C)C)C(C)C)C(=O)NCc1ccccc1 [Example 17, 1-[1-[2-(S)-[[(1,1-dimethylethoxy)carbonyl]amino]-3-methylbutyl]-L-proline] -L-isoleucine Benzylamide] | – | –
> 15 µM | – | CC[C@H](C)[C@H](NC(=O)[C@@H]1CCCCN1C[C@H](CC(C)C)NC(=O)OC(C)(C)C)C(=O)NCc1ccccc1 [Example 18, 1-[1-[2-(S)-[[(1,1-Dimethylethoxy)carbonyl]amino]-4-methylpentyl]-L-homoproline]-L-isoleucine Benzylamide] | – | –
9 µM | – | CC[C@H](C)[C@@H](CN1CCCC[C@H]1C(=O)N[C@H](C(=O)NCc1ccccc1)[C@@H](C)OCc1ccccc1)NC(=O)OC(C)(C)C [Example 19, 1-[1-[2-(S)-[[(1,1-Dimethylethoxy)carbonyl]amino]-3-(S)-methylpentyl]-L-homoproline]-L-threonene(O-Benzyl Ether)Benzylamide] | 43% | 2.1 ± 0.6 mm

SMILES | IC50 (NF-AT (FGL-5 cells); [1]) | IC50 (NF-AT (FGL-5 cells); [2]) | % Inhibition (Lewis rats) | ΔAnkle Diameter (Lewis rats)
CC[C@H](C)[C@H](NC(=O)[C@@H]1CCCN1C[C@@H](NC(=O)OC(C)(C)C)[C@@H](C)CC)C(=O)NCc1ccccc1 [Example 6] | 8 µM | – | 4% | 3.2 ± 0.3 mm
